Laboratory results from patent US20200239530A1, “COMPOUNDS AND METHODS OF MODULATING PROTEIN DEGRADATION” (Vividion Therapeutics, Inc., priority 2017, published 2020).
Where two headings read alike, the source gives them in different places.

Columns and labels:
Assay in all cases: Cysteine liganding, probe competition
Format in all cases: binding
UniProt Q9C035 = molecular target: T1, UniProt Q9C035 (Homo sapiens, UniProt Q9C035)
T1 construct: 200 μL of lysate containing 5 mg/ml proteome was treated with 2 μL of 100× compound stock; endogenous in cells
Description: (§1) The following 96-well sample prep protocol was used for sample preparation.

UniProt Q6AZZ1 = molecular target: T2, UniProt Q6AZZ1 (Homo sapiens, UniProt Q6AZZ1)
T2 construct: 200 μL of lysate containing 5 mg/ml proteome was treated with 2 μL of 100× compound stock; endogenous in cells
T2 sequence (Q6AZZ1 1-485): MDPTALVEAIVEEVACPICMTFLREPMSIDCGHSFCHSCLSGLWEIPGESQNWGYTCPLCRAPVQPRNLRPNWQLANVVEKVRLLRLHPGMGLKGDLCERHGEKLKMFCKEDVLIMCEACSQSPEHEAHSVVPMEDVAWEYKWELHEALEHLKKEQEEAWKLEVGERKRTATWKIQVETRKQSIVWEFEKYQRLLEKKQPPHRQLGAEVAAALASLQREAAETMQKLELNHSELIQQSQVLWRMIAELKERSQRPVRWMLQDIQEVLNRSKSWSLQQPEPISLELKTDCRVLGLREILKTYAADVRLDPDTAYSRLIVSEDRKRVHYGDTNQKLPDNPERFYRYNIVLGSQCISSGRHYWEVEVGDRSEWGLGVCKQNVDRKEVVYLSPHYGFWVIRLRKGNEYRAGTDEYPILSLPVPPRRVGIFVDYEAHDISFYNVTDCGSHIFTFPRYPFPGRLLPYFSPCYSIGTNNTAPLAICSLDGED
Description: as §1

UniProt Q9BY78 = molecular target: T3, UniProt Q9BY78 (Homo sapiens, UniProt Q9BY78); details: for inhibition at 500 µM: read-out: percent_inhibition
T3 construct: 200 μL of lysate containing 5 mg/ml proteome was treated with 2 μL of 100× compound stock; endogenous in cells
T3 sequence (Q9BY78 1-433): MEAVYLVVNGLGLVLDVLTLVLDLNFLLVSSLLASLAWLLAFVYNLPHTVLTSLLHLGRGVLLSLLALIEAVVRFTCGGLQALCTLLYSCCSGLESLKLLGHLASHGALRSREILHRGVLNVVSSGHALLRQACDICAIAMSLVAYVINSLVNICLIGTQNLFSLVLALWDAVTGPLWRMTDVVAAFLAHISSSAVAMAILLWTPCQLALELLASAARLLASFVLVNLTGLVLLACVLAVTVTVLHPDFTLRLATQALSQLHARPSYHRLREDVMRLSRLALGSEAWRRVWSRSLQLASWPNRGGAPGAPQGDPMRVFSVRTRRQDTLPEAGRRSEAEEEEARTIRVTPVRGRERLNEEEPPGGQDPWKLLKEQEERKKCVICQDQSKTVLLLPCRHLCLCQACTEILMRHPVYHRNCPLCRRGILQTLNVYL
Description: as §1

UniProt Q5W0B1 = molecular target: T4, UniProt Q5W0B1 (Homo sapiens, UniProt Q5W0B1)
T4 construct: 200 μL of lysate containing 5 mg/ml proteome was treated with 2 μL of 100× compound stock; endogenous in cells
T4 sequence (Q5W0B1 1-726): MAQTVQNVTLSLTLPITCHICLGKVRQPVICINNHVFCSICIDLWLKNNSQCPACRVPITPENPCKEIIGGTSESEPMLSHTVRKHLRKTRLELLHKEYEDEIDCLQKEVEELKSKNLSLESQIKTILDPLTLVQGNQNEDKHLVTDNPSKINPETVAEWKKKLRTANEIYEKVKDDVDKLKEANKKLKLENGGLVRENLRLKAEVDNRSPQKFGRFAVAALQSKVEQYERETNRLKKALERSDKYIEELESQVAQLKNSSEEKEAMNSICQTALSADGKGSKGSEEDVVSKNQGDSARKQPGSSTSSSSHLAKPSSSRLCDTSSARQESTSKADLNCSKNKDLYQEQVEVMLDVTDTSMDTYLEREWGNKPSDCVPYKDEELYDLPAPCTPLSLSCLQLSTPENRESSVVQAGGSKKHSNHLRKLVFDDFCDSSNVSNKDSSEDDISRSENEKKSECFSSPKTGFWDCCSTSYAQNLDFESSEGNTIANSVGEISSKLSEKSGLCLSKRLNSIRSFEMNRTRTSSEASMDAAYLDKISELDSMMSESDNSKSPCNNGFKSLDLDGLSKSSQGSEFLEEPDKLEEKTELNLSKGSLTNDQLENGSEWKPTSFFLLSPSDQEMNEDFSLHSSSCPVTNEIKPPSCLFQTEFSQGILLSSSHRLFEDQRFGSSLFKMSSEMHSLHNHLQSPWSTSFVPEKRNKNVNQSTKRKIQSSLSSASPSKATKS
Description: as §1

UniProt Q7Z3V4 = molecular target: T5, UniProt Q7Z3V4 (Homo sapiens, UniProt Q7Z3V4)
T5 construct: 200 μL of lysate containing 5 mg/ml proteome was treated with 2 μL of 100× compound stock; endogenous in cells
T5 sequence (Q7Z3V4 1-1068): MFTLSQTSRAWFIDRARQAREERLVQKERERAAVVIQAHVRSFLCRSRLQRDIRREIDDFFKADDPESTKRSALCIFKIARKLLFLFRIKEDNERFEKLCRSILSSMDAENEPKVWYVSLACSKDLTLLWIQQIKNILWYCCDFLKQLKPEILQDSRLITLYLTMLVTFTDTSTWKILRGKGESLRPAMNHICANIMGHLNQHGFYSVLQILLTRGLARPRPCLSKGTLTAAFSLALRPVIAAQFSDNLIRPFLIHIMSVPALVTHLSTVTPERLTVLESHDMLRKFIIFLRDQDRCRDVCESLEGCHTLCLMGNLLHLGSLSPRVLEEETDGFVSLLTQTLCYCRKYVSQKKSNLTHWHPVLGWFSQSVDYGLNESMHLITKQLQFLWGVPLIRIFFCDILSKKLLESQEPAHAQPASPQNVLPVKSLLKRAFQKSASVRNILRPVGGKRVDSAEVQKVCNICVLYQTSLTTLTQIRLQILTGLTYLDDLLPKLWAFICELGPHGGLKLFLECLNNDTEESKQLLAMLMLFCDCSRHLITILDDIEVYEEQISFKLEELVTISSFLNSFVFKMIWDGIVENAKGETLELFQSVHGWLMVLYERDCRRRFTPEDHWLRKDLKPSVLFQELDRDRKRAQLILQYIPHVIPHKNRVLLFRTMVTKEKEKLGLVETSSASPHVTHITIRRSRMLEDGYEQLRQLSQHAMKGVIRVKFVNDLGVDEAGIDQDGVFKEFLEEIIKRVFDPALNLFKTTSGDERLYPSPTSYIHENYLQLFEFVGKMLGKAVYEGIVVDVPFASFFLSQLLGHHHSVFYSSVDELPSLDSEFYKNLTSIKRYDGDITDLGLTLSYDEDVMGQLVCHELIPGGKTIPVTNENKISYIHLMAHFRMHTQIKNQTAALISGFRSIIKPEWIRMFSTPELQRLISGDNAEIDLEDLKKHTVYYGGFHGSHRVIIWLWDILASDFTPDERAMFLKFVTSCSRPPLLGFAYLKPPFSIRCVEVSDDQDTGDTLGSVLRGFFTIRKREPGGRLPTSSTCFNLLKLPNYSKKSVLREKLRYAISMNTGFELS
Description: as §1

[1] = 500 uM, read-out: percent_inhibition

T1 sequence (Q9C035 whole entry, change not shown): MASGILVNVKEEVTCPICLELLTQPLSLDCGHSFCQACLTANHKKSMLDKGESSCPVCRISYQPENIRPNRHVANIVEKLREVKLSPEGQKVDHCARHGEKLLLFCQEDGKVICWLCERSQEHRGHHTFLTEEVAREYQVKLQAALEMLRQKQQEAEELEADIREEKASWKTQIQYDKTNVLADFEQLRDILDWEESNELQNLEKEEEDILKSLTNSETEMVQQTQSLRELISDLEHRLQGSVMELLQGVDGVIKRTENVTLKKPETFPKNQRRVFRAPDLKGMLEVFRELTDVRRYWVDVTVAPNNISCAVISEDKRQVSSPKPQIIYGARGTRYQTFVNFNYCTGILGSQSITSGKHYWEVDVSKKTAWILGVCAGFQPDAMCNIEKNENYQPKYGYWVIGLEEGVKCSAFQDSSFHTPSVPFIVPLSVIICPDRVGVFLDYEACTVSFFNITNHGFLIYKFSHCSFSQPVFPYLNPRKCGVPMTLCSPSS

Compound	inhibition at 100 µM (UniProt Q9C035; read-out: KB02_100 uM_percent_inhibition)	inhibition at 500 µM (UniProt Q6AZZ1; read-out: KB02_500 uM_percent_inhibition)	inhibition at 500 µM (UniProt Q9BY78)	inhibition at 100 µM (UniProt Q5W0B1; 100 uM, read-out: percent_inhibition)	inhibition at 500 µM (UniProt Q5W0B1; [1])	inhibition at 100 µM (UniProt Q7Z3V4; 100 uM, read-out: KB02_100 uM_percent_inhibition)	inhibition at 500 µM (UniProt Q7Z3V4; 500 uM, read-out: KB02_500 uM_percent_inhibition)	inhibition at 100 µM (UniProt Q9C035; read-out: KB05_100 uM_percent_inhibition)	inhibition at 500 µM (UniProt Q6AZZ1; read-out: KB05_500 uM_percent_inhibition)	inhibition at 100 µM (UniProt Q7Z3V4; 100 uM, read-out: KB05_100 uM_percent_inhibition)	inhibition at 500 µM (UniProt Q7Z3V4; 500 uM, read-out: KB05_500 uM_percent_inhibition)	KB03_100 uM_percent_inhibition (UniProt Q9C035; 100 uM)	KB03_500 uM_percent_inhibition (UniProt Q6AZZ1; 500 uM)	percent_inhibition (UniProt Q9BY78; 500 uM)	percent_inhibition (UniProt Q5W0B1; 500 uM)	KB03_100 uM_percent_inhibition (UniProt Q7Z3V4; 100 uM)	KB03_500 uM_percent_inhibition (UniProt Q7Z3V4; 500 uM)
COc1ccc2c(c1)CCCN2C(=O)CCl [KB02]	13%	44%	31%	17%	54%	42%	86%										
C=CC(=O)N(c1ccccc1)c1ccc(Br)cc1 [KB05]			30%		48%			4%	36%	8%	64%						
O=C(CCl)Nc1cc(C(F)(F)F)cc(C(F)(F)F)c1 [KBO3]												18%	18%	54%	28%	33%	56%
